Bounds are passed on as bounds.

The target in one test is human STING (HAQ) (Homo sapiens, UniProt Q86WV6, G230A/H232R/R293Q). Kind of test: Differential scanning fluorimetry (DSF), huSTING (HAQ). It counts as binding. The conditions noted are these: 2 μM protein, compound 100 μM; Tm with ligand minus Tm of protein alone (1% DMSO); read-out: DSF huSTING (HAQ) ΔTm (° C.). In outline:
(§1)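 Recombinant His-TEV-tagged human STING allelic variants expressed in E. coli and purified by IMAC. Thermal unfolding followed by dye fluorescence (excitation 490 nm, emission 570 nm) from 20° C. to 100° C. in 0.5° C. steps, in triplicate, with and without ligand; Tm taken from the transition inflection point.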
For orientation: In DSF a fluorescence change marks the thermal transition of the protein.

In the next test the target is human STING (WT) (Homo sapiens (Human), UniProt Q86WV6, H232R). As to the kind of experiment: Differential scanning fluorimetry (DSF), huSTING (WT). In kind it is binding. The conditions noted are these: 2 μM protein, compound 100 μM, Tm with ligand minus Tm of protein alone (1% DMSO); for ΔTm at 100 µM: read-out: DSF huSTING (WT) ΔTm (° C.). In outline:
as §1

In test [1] the target is human HAQ isoform of STING (THP-1 STING Lucia ISG cells) (Homo sapiens (Human), UniProt Q86WV6, G230A/H232R/R293Q/R71H). Kind of test: THP-1 STING Lucia ISG reporter cell line assay. In kind it is cell-based. The conditions noted are these: 24 h incubation, QUANTI-Luc luminescence. In outline:
(§2)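 THP-1 STING Lucia ISG cells (HAQ STING) or THP-1-Dual KI-hSTING-R232 cells (WT STING) treated 24 h at 37 °C with 11-point, 2.5-fold compound dilutions. ISG-driven Lucia luciferase read by luminescence, normalised to untreated wells and 40 μM ML RR-S2 CDA positive control; EC50 derived.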

Test [2] has as its target WT human STING isoform (THP-1-Dual KI-hSTING-R232 cells) (Homo sapiens (Human), UniProt Q86WV6, H232R). Kind of test: THP-1-Dual KI-hSTING-R232 reporter cell line assay. In kind it is cell-based. The conditions noted are these: 24 h incubation, QUANTI-Luc luminescence. In outline: as §2

Sequence of WT human STING isoform (THP-1-Dual KI-hSTING-R232 cells) (Q86WV6 whole entry H232R, canonical isoform): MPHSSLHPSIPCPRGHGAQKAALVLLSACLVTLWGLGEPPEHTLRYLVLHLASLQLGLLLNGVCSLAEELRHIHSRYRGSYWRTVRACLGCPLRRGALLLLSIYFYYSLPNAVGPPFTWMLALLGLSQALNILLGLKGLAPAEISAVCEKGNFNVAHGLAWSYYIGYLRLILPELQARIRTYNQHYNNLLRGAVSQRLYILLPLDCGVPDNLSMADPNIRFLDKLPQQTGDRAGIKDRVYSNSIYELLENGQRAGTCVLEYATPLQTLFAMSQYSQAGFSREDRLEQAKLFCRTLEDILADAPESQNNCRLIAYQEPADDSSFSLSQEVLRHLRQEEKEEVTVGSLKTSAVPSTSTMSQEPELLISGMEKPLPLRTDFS
Sequence of human STING (WT) (Q86WV6 other isoform, or with tags, fused parts or gaps, stated change not applied): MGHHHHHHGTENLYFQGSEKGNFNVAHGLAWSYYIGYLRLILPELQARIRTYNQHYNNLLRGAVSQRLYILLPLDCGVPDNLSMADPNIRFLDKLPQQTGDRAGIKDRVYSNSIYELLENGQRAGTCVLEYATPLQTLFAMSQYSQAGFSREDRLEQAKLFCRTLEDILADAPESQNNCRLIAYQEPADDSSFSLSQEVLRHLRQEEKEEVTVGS
Sequence of human HAQ isoform of STING (THP-1 STING Lucia ISG cells) (Q86WV6 whole entry R71H/G230A/H232R/R293Q, canonical isoform): as the sequence (Q86WV6 whole entry H232R, canonical isoform) above, with R71H, G230A, R293Q counted along it
Sequence of human STING (HAQ) (Q86WV6 whole entry G230A/H232R/R293Q, looked up): as the sequence (Q86WV6 whole entry H232R, canonical isoform) above, with G230A, R293Q counted along it

As to `COc1c(C(N)=O)ccc2c1nc(-c1ccccc1C(=O)O)n2CCn1c(-c2ccccc2C(=O)O)nc2c(OC)c(C(N)=O)ccc21` [Example 4, 2,2′-(Ethane-1,2-diylbis(5-carbamoyl-4-methoxy-1H-benzo[d]imidazole-1,2-diyl))dibenzoic acid], the ΔTm at 100 µM on human STING (HAQ) is 7.23 °C; on human STING (WT), 3.28 °C. In addition, the EC50 is 15900 nM in test [1] and 32500 nM in test [2].

As for `COc1c(C(N)=O)ccc2c1nc(-c1c(F)cc(Cl)cc1-c1n[nH]c(=O)o1)n2CCn1c(-c2c(F)cc(Cl)cc2-c2n[nH]c(=O)o2)nc2c(OC)c(C(N)=O)ccc21` [Example 50, 1,1′-(Ethane-1,2-diyl)bis(2-(4-chloro-2-fluoro-6-(5-oxo-4,5-dihydro-1,3,4-oxadiazol-2-yl)phenyl)-4-methoxy-1H-benzo[d]imidazole-5-carboxamide)], the ΔTm at 100 µM on human STING (HAQ) is 26.4 °C; at human STING (WT), 12.5 °C. Moreover, the EC50 in test [1] worked out at 174 nM; in test [2] it was 31.2 nM.

Consider `COc1c(C(N)=O)ccc2c1nc(-c1ccc(Cl)cc1C(=O)O)n2C/C=C/Cn1c(-c2ccc(Cl)cc2C(=O)O)nc2c(OC)c(C(N)=O)ccc21` [Example 34, (E)-6,6′-(But-2-ene-1,4-diylbis(5-carbamoyl-4-methoxy-1H-benzo[d]imidazole-1,2-diyl))bis(3-chlorobenzoic acid)], for which the values for the ΔTm at 100 µM at human STING (HAQ) and at human STING (WT) were 0.49 °C and -2.39 °C, respectively. Further, the EC50 in test [1] and in test [2] was above 40000 nM in each case.

On to `COc1c(C(N)=O)ccc2c1nc(-c1c(I)cccc1C(=O)O)n2CCn1c(-c2c(I)cccc2C(=O)O)nc2c(OC)c(C(N)=O)ccc21` (single isomer, unassigned) [Example 19.1, 2,2′-(Ethane-1,2-diylbis(5-carbamoyl-4-methoxy-1H-benzo[d]imidazole-1,2-diyl))bis(3-iodobenzoic acid)], for which the ΔTm at 100 µM at human STING (HAQ) worked out at 31.7 °C. Moreover, the “DSF huSTING (WT) ΔTm (° C.)” value on human STING (WT) is 19.29 °C. The EC50 worked out at 297 nM in test [1] and 232 nM in test [2].

`COc1c(C(N)=O)ccc2c1nc(-c1c(F)cccc1-c1nn[nH]n1)n2CCn1c(-c2c(F)cccc2-c2nn[nH]n2)nc2c(OC)c(C(N)=O)ccc21` [Example 48, 1,1′-(Ethane-1,2-diyl)bis(2-(2-fluoro-6-(2H-tetrazol-5-yl)phenyl)-4-methoxy-1H-benzo[d]imidazole-5-carboxamide)]: the results for the ΔTm at 100 µM at human STING (HAQ) and at human STING (WT) were 25.5 °C and 11.8 °C, respectively. Also, the EC50 in test [1] was found to be 415 nM; in test [2] it was 269 nM.

As to `COc1c(C(N)=O)ccc2c1nc(-c1c(Cl)cccc1-c1nn[nH]n1)n2CCn1c(-c2c(Cl)cccc2-c2nn[nH]n2)nc2c(OC)c(C(N)=O)ccc21` (single isomer, unassigned) [Example 23, 1,1′-(Ethane-1,2-diyl)bis(2-(2-chloro-6-(2H-tetrazol-5-yl)phenyl)-4-methoxy-1H-benzo[d]imidazole-5-carboxamide)], the ΔTm at 100 µM at human STING (HAQ) is 29.2 °C; on human STING (WT), 15 °C. For the same molecule, the EC50 in test [1] amounted to 2500 nM; in test [2], 2470 nM.

Take `CCc1ccc(-c2nc3c(OC)c(C(N)=O)ccc3n2CCn2c(-c3ccc(CC)cc3C(=O)O)nc3c(OC)c(C(N)=O)ccc32)c(C(=O)O)c1` [Example 33, 6,6′-(Ethane-1,2-diylbis(5-carbamoyl-4-methoxy-1H-benzo[d]imidazole-1,2-diyl))bis(3-ethylbenzoic acid)]: the ΔTm at 100 µM at human STING (HAQ) is 4.06 °C; on human STING (WT) it was 1.17 °C. The EC50 in test [1] and in test [2] was above 40000 nM throughout.

On to `COc1c(C(N)=O)ccc2c1nc(-c1ccc(Cl)cc1-c1n[nH]c(=O)o1)n2CCn1c(-c2ccc(Cl)cc2-c2n[nH]c(=O)o2)nc2c(OC)c(C(N)=O)ccc21` [Example 17, 1,1′-(Ethane-1,2-diyl)bis(2-(4-chloro-2-(5-oxo-4,5-dihydro-1,3,4-oxadiazol-2-yl)phenyl)-4-methoxy-1H-benzo[d]imidazole-5-carboxamide)], for which the values for the shift in melting temperature (ΔTm) at 100 µM at human STING (HAQ) and on human STING (WT) were 11.9 °C and 3.05 °C, respectively. The EC50 in test [1] was found to be 290 nM; in test [2], 360 nM.

Regarding `COc1c(C(N)=O)ccc2c1nc(-c1cnccc1C(=O)O)n2CCn1c(-c2cnccc2C(=O)O)nc2c(OC)c(C(N)=O)ccc21` [Example 30, 3,3′-(Ethane-1,2-diylbis(5-carbamoyl-4-methoxy-1H-benzo[d]imidazole-1,2-diyl))diisonicotinic acid], the ΔTm at 100 µM at human STING (HAQ) was found to be 2.14 °C; on human STING (WT), 0.29 °C. Also, the EC50 in test [1] turned out to be 39100 nM; in test [2], 28900 nM.

Consider `COc1c(C(N)=O)ccc2c1nc(-c1cccc(Br)c1C(=O)O)n2CCn1c(-c2cccc(Br)c2C(=O)O)nc2c(OC)c(C(N)=O)ccc21` [Example 36, 6,6′-(Ethane-1,2-diylbis(5-carbamoyl-4-methoxy-1H-benzo[d]imidazole-1,2-diyl))bis(2-bromobenzoic acid)], for which the ΔTm at 100 µM at human STING (HAQ) worked out at 5.24 °C; at human STING (WT), 2.04 °C. Moreover, the EC50 in test [1] and in test [2] was above 40000 nM throughout.

As to `COc1c(C(N)=O)ccc2c1nc(-c1ccc(Cl)cc1-c1nn[nH]n1)n2CCn1c(-c2ccc(Cl)cc2-c2nn[nH]n2)nc2c(OC)c(C(N)=O)ccc21` [Example 9, 1,1′-(Ethane-1,2-diyl)bis(2-(4-chloro-2-(2H-tetrazol-5-yl)phenyl)-4-methoxy-1H-benzo[d]imidazole-5-carboxamide)], the ΔTm at 100 µM came out at 11.3 °C on human STING (HAQ) and 5.06 °C at human STING (WT). The EC50 in test [1] is 777 nM; in test [2], 715 nM.

As for `COc1c(C(N)=O)ccc2c1nc(-c1c(F)cc(Cl)cc1-c1nn[nH]n1)n2CCn1c(-c2c(F)cc(Cl)cc2-c2nn[nH]n2)nc2c(OC)c(C(N)=O)ccc21` [Example 46, 1,1′-(Ethane-1,2-diyl)bis(2-(4-chloro-2-fluoro-6-(2H-tetrazol-5-yl)phenyl)-4-methoxy-1H-benzo[d]imidazole-5-carboxamide)], the figures for the ΔTm at 100 µM on human STING (HAQ) and on human STING (WT) were 28.6 °C and 14.4 °C, respectively. Also, the EC50 in test [1] was found to be 218 nM; in test [2] it was 195 nM.

As for `COc1c(C(N)=O)ccc2c1nc(-c1c(F)cccc1-c1n[nH]c(=O)o1)n2CCn1c(-c2c(F)cccc2-c2n[nH]c(=O)o2)nc2c(OC)c(C(N)=O)ccc21` [Example 49, 1,1′-(Ethane-1,2-diyl)bis(2-(2-fluoro-6-(5-oxo-4,5-dihydro-1,3,4-oxadiazol-2-yl)phenyl)-4-methoxy-1H-benzo[d]imidazole-5-carboxamide)], the ΔTm at 100 µM at human STING (HAQ) was 21.3 °C; on human STING (WT), 10.2 °C. Moreover, the figures for the EC50 in test [1] and in test [2] were 136 nM and 191 nM, respectively.

As to `COc1c(C(N)=O)cc(F)c2c1nc(-c1ccc(Cl)cc1C(=O)O)n2CCn1c(-c2ccc(Cl)cc2C(=O)O)nc2c(OC)c(C(N)=O)cc(F)c21` [Example 20, 6,6′-(Ethane-1,2-diylbis(5-carbamoyl-7-fluoro-4-methoxy-1H-benzo[d]imidazole-1,2-diyl))bis(3-chlorobenzoic acid)], the figures for the ΔTm at 100 µM at human STING (HAQ) and at human STING (WT) were 3.69 °C and -3 °C, respectively. Moreover, the EC50 was 1300 nM in test [1] and 2780 nM in test [2].

Regarding `COc1c(C(N)=O)ccc2c1nc(-c1ncc(Cl)cc1C(=O)O)n2CCn1c(-c2ncc(Cl)cc2C(=O)O)nc2c(OC)c(C(N)=O)ccc21` [Example 31, 2,2′-(Ethane-1,2-diylbis(5-carbamoyl-4-methoxy-1H-benzo[d]imidazole-1,2-diyl))bis(5-chloronicotinic acid)], the ΔTm at 100 µM at human STING (HAQ) was found to be 3.98 °C; on human STING (WT) it was 0.18 °C. Moreover, the EC50 in test [1] and in test [2] was above 40000 nM throughout.

As to `COc1c(C(N)=O)ccc2c1nc(-c1c(F)cc(F)cc1-c1n[nH]c(=O)o1)n2CCn1c(-c2c(F)cc(F)cc2-c2n[nH]c(=O)o2)nc2c(OC)c(C(N)=O)ccc21` [Example 44, 1,1′-(Ethane-1,2-diyl)bis(2-(2,4-difluoro-6-(5-oxo-4,5-dihydro-1,3,4-oxadiazol-2-yl)phenyl)-4-methoxy-1H-benzo[d]imidazole-5-carboxamide)], the ΔTm at 100 µM on human STING (HAQ) worked out at 13.1 °C; at human STING (WT), 0.88 °C. In addition, the EC50 in test [1] amounted to 558 nM; in test [2] it was 380 nM.

With `NC(=O)c1ccc2c(c1)nc(-c1ccccc1-c1nn[nH]n1)n2CCn1c(-c2ccccc2-c2nnn[nH]2)nc2cc(C(N)=O)ccc21` [Example 5, 2-(2-(1H-Tetrazol-5-yl)phenyl)-1-(2-(2-(2-(2H-tetrazol-5-yl)phenyl)-5-carbamoyl-1H-benzo[d]imidazol-1-yl)ethyl)-1H-benzo[d]imidazole-5-carboxamide], the figures for the ΔTm at 100 µM on human STING (HAQ) and at human STING (WT) were 6.04 °C and 1.33 °C, respectively. Further, the EC50 worked out at 24800 nM in test [1] and 6400 nM in test [2].

In general, ΔTm refers to the shift of the melting midpoint relative to a reference. The term EC50 denotes the midpoint of the concentration-response curve.

These data come from patent publication US12415785B2, “Compound modulators of sting” (CTXT PTY LTD, priority 2019, dated 2025).
